Experimental data from ChEMBL document CHEMBL1131716, “Heterocycle-peptide hybrid compounds. Aminotriazole-containing agonists of the thrombin receptor (PAR-1)” (Bioorg Med Chem Lett, 1999).
Where a SMILES comes first, the peptide text is derived from it. [ ]: non-standard residue; d: D form. The star is where a group is joined. Cha = N[C@@H](CC1CCCCC1)C(=O)O; Nicotinoyl = O=C(c1cccnc1)*; 3Abz = Nc1cccc(C(=O)O)c1; 4Abz = Nc1ccc(C(=O)O)cc1; βAla = NCCC(=O)O

Key:
[1] = target: T1, Proteinase-activated receptor 1 (Homo sapiens, UniProt P25116); assay: Inhibition of [3H]S-(p-F-Phe)-Har-L-Har-KY-NH2 binding to Thrombin receptor 1 (PAR-1) on membranes from CHRF cells; type: cell membranes
T1 sequence (P25116 whole entry): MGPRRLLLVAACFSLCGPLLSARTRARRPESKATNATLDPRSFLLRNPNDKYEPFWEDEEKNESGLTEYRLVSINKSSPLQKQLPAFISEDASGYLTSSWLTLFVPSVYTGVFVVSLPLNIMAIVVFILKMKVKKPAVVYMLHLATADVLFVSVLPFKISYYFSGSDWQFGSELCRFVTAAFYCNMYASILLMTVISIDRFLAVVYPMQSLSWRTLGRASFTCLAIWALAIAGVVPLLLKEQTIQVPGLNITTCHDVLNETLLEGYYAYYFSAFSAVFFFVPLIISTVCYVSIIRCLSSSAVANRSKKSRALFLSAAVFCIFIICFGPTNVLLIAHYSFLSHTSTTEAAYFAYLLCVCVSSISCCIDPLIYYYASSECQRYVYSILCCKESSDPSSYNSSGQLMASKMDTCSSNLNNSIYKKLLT

[2] = target: T1, Proteinase-activated receptor 1; assay: Inhibition of [3H]S-(p-F-Phe)-Har-L-Har-KY-NH2 binding to thrombin receptor (PAR-1) on membranes from CHRF cells; type: cell membranes
[3] = target: T2, Proteinase-activated receptor 1 (Homo sapiens) (UniProt P25116); assay: Evaluated for activation of human platelet aggregation (gel-filtered platelets) induced by alpha thrombin at 50 uM; type: functional
T2 sequence (whole entry): T1 sequence (P25116 whole entry)

Homo sapiens = species: Homo sapiens; assay: Antagonist activity by using human gel-filtered platelet aggregation; type: functional

IC50 [2] [µM] | percent activation of platelet aggregation [3] [%] | Structure (SMILES) | other results
– | – | N=C(N)NCCC[C@H](NC(=O)[C@H](CC1CCCCC1)NC(=O)c1n[nH]c(NC(=O)/C=C/c2cccc(Cl)c2)n1)C(=O)N[C@@H](Cc1ccccc1)C(N)=O | IC50 [1]: 15 µM
9 | – | N=C(N)NCCC[C@H](NC(=O)[C@H](CC1CCCCC1)NC(=O)CCN)C(=O)N[C@@H](Cc1ccccc1)C(N)=O (H-[βAla][Cha]RF-NH2) | –
4 | – | N=C(N)NCCC[C@H](NC(=O)[C@H](Cc1ccccc1)NC(=O)c1ccc2[nH]cnc2c1)C(=O)N[C@@H](Cc1ccccc1)C(N)=O | –
18 | < 20 | C[C@H](NC(=O)[C@H](CC1CCCCC1)NC(=O)c1n[nH]c(N)n1)C(=O)N[C@@H](Cc1ccccc1)C(N)=O | –
1.6 | – | N=C(N)NCCC[C@H](NC(=O)[C@H](CC1CCCCC1)NC(=O)c1cc(=O)c2ccccc2o1)C(=O)N[C@@H](Cc1ccccc1)C(N)=O | –
7 | – | N=C(N)NCCC[C@H](NC(=O)[C@H](CC1CCCCC1)NC(=O)c1nnc(N)[nH]1)C(=O)N[C@H](C(N)=O)c1ccccc1 | –
100 | – | N=C(N)NCCC[C@H](NC(=O)[C@H](CC1CCCCC1)NC(=O)c1n[nH]c(NC(=O)/C=C/c2c[nH]c3ccccc23)n1)C(=O)N[C@@H](Cc1ccccc1)C(N)=O | –
2 | – | N=C(N)NCCC[C@H](NC(=O)[C@H](CC1CCCCC1)NC(=O)c1cccc(N)c1)C(=O)N[C@@H](Cc1ccccc1)C(N)=O (H-[3Abz][Cha]RF-NH2) | –
1.6 | – | N=C(N)NCCC[C@H](NC(=O)[C@H](CC1CCCCC1)NC(=O)c1n[nH]c(NC(=O)/C=C/c2ccccc2[N+](=O)[O-])n1)C(=O)N[C@@H](Cc1ccccc1)C(N)=O | –
– | – | N=C(N)NCCC[C@H](NC(=O)[C@H](CC1CCCCC1)NC(=O)c1n[nH]c(NC(=O)/C=C/c2ccc(C(F)(F)F)cc2)n1)C(=O)N[C@@H](Cc1ccccc1)C(N)=O | IC50 [1]: 30 µM
0.55 | – | CC(C)C[C@H](NC(=O)[C@H](CC(C)C)NC(=O)[C@H](Cc1ccccc1)NC(=O)[C@@H](N)CO)C(=O)N[C@@H](CCCN=C(N)N)C(=O)N[C@@H](CC(N)=O)C(N)=O | –
– | 32 | N=C(N)NCCC[C@H](NC(=O)[C@H](CC1CCCCC1)NC(=O)c1cnc(Cl)c(Cl)c1)C(=O)N[C@@H](Cc1ccccc1)C(N)=O | IC50 [1]: 2.6 µM
2 | – | N=C(N)NCCC[C@H](NC(=O)[C@H](Cc1ccccc1)NC(=O)c1nnc(N)[nH]1)C(=O)N[C@@H](Cc1ccccc1)C(N)=O | –
4 | – | N=C(N)NCCC[C@H](NC(=O)[C@H](CC1CCCCC1)NC(=O)c1nnc(N)[nH]1)C(=O)N[C@@H](Cc1cccs1)C(N)=O | –
4.4 | – | N=C(N)NCCC[C@H](NC(=O)[C@H](CC1CCCCC1)NC(=O)c1ccccn1)C(=O)N[C@@H](Cc1ccccc1)C(N)=O | –
16 | < 20 | N=C(N)NCCC[C@H](NC(=O)[C@H](CC1CCCCC1)NC(=O)C1=COc2ccccc2O1)C(=O)N[C@@H](Cc1ccccc1)C(N)=O | –
16 | 26 | N=C(N)NCCC[C@H](NC(=O)[C@H](CC1CCCCC1)NC(=O)C1C=CC=NC1=O)C(=O)N[C@@H](Cc1ccccc1)C(N)=O (some centres not stated) | –
2 | – | N=C(N)NCCC[C@H](NC(=O)[C@H](CC1CCCCC1)NC(=O)c1ccc(N)nc1)C(=O)N[C@@H](Cc1ccccc1)C(N)=O | –
3.1 | – | N=C(N)NCCC[C@H](NC(=O)[C@H](CC1CCCCC1)NC(=O)c1cnc2ccccc2n1)C(=O)N[C@@H](Cc1ccccc1)C(N)=O | –
– | – | COc1ccc(/C=C/C(=O)Nc2n[nH]c(C(=O)N[C@@H](CC3CCCCC3)C(=O)N[C@@H](CCCN=C(N)N)C(=O)N[C@@H](Cc3ccccc3)C(N)=O)n2)cc1 | IC50 [1]: 4 µM
1.3 | – | N=C(N)NCCC[C@H](NC(=O)[C@H](CC1CCCCC1)NC(=O)c1cccnc1)C(=O)N[C@@H](Cc1ccccc1)C(N)=O (Nicotinoyl-[Cha]-Arg-Phe-NH2) | –
10 | 55 | N=C(N)NCCC[C@H](NC(=O)[C@H](CC1CCCCC1)NC(=O)c1ccc[nH]1)C(=O)N[C@@H](Cc1ccccc1)C(N)=O | –
2.9 | 40 | N=C(N)NCCC[C@H](NC(=O)[C@H](CC1CCCCC1)NC(=O)c1ccc(N)cc1)C(=O)N[C@@H](Cc1ccccc1)C(N)=O (H-[4Abz][Cha]RF-NH2) | –
– | – | N=C(N)NCCC[C@H](NC(=O)[C@H](CC1CCCCC1)NC(=O)c1n[nH]c(NC(=O)/C=C/c2ccc(F)cc2)n1)C(=O)N[C@@H](Cc1ccccc1)C(N)=O | IC50 [1]: 1.2 µM
9.4 | – | N=C(N)NCCC[C@H](NC(=O)[C@H](CC1CCCCC1)NC(=O)c1csnn1)C(=O)N[C@@H](Cc1ccccc1)C(N)=O | –

IC50 [2] [µM] | percent activation of platelet aggregation [3] [%] | Structure (SMILES) | other results
5.4 | – | NCCCC[C@H](NC(=O)[C@H](CC1CCCCC1)NC(=O)c1n[nH]c(N)n1)C(=O)N[C@@H](Cc1ccccc1)C(N)=O | –
2.4 | – | N=C(N)NCCC[C@H](NC(=O)[C@H](CC1CCCCC1)NC(=O)c1ccc(Cl)nc1)C(=O)N[C@@H](Cc1ccccc1)C(N)=O | –
7 | 26 | N=C(N)NCCC[C@H](NC(=O)[C@H](CC1CCCCC1)NC(=O)c1ccncc1)C(=O)N[C@@H](Cc1ccccc1)C(N)=O | –
4.4 | – | N=C(N)NCCC[C@H](NC(=O)[C@H](CC1CCCCC1)NC(=O)c1n[nH]c(NC(=O)/C=C/c2cccs2)n1)C(=O)N[C@@H](Cc1ccccc1)C(N)=O | –
– | – | N=C(N)NCCC[C@H](NC(=O)[C@H](CC1CCCCC1)NC(=O)c1n[nH]c(NC(=O)/C(F)=C/c2ccccc2)n1)C(=O)N[C@@H](Cc1ccccc1)C(N)=O | IC50 (Homo sapiens): 28 µM
16 | – | N=C(N)NCCC[C@H](NC(=O)[C@H](CC1CCCCC1)NC(=O)c1n[nH]c(NC(=O)/C=C/c2cccc3ccccc23)n1)C(=O)N[C@@H](Cc1ccccc1)C(N)=O | IC50 (Homo sapiens): 5.4 µM
– | – | N=C(N)NCCC[C@H](NC(=O)[C@H](CC1CCCCC1)NC(=O)c1n[nH]c(NC(=O)/C=C/c2ccccc2Cl)n1)C(=O)N[C@@H](Cc1ccccc1)C(N)=O | IC50 [1]: 1.4 µM; IC50 (Homo sapiens): 3.6 µM
2.3 | – | N=C(N)NCCC[C@H](NC(=O)[C@H](CC1CCCCC1)NC(=O)c1cc2ccccc2s1)C(=O)N[C@@H](Cc1ccccc1)C(N)=O | –
25 | 38 | N=C(N)NCCC[C@H](NC(=O)[C@H](CC1CCCCC1)NC(=O)c1ccoc1)C(=O)N[C@@H](Cc1ccccc1)C(N)=O | –
– | – | N=C(N)NCCC[C@H](NC(=O)[C@H](CC1CCCCC1)NC(=O)c1n[nH]c(NC(=O)/C=C/c2cccc([N+](=O)[O-])c2)n1)C(=O)N[C@@H](Cc1ccccc1)C(N)=O | IC50 [1]: 8.5 µM
– | – | N=C(N)NCCC[C@H](NC(=O)[C@H](CC1CCCCC1)NC(=O)c1n[nH]c(NC(=O)/C=C/c2ccc(Cl)cc2)n1)C(=O)N[C@@H](Cc1ccccc1)C(N)=O | IC50 [1]: 1.4 µM
5.5 | – | N=C(N)NCCC[C@H](NC(=O)[C@H](CC1CCCCC1)NC(=O)/C=C/c1cccnc1)C(=O)N[C@@H](Cc1ccccc1)C(N)=O | –
1.9 | – | N=C(N)NCCC[C@H](NC(=O)[C@H](CC1CCCCC1)NC(=O)c1n[nH]c(N)n1)C(=O)N[C@@H](Cc1ccccc1)C(N)=O | –
8.5 | – | N=C(N)NCCC[C@H](NC(=O)[C@H](CC1CCCCC1)NC(=O)c1nccnc1N)C(=O)N[C@@H](Cc1ccccc1)C(N)=O | –
– | – | N=C(N)NCCC[C@H](NC(=O)[C@H](CC1CCCCC1)NC(=O)c1cc2ccccc2o1)C(=O)N[C@@H](Cc1ccccc1)C(N)=O | IC50 [1]: 3 µM
56 | 21 | N=C(N)NCCC[C@H](NC(=O)[C@H](CC1CCCCC1)NC(=O)c1cc2ccccc2[nH]1)C(=O)N[C@@H](Cc1ccccc1)C(N)=O | –
7.6 | < 20 | N=C(N)NCCC[C@H](NC(=O)[C@H](CC1CCCCC1)NC(=O)c1cccnc1Cl)C(=O)N[C@@H](Cc1ccccc1)C(N)=O | –
27 | < 20 | N=C(N)NCCC[C@H](NC(=O)[C@H](CC1CCCCC1)NC(=O)c1n[nH]c(N)n1)C(=O)N[C@@H](Cc1c[nH]cn1)C(N)=O | –
2.3 | – | N=C(N)NCCC[C@H](NC(=O)[C@H](CC1CCCCC1)NC(=O)c1cccnc1N)C(=O)N[C@@H](Cc1ccccc1)C(N)=O | –
13 | 56 | N=C(N)NCCC[C@H](NC(=O)[C@H](CC1CCCCC1)NC(=O)c1ccc(-c2ccccc2)cc1)C(=O)N[C@@H](Cc1ccccc1)C(N)=O | –
– | – | N=C(N)NCCC[C@H](NC(=O)[C@H](CC1CCCCC1)NC(=O)c1n[nH]c(NC(=O)/C=C/c2ccccc2)n1)C(=O)N[C@@H](Cc1ccccc1)C(N)=O | IC50 [1]: 6.4 µM; IC50 (Homo sapiens): 9.8 µM
5 | 20 | N=C(N)NCCC[C@H](NC(=O)[C@H](CC1CCCCC1)NC(=O)/C=C/c1ccccc1)C(=O)N[C@@H](Cc1ccccc1)C(N)=O | –
46 | < 20 | C[C@H](NC(=O)c1n[nH]c(N)n1)C(=O)N[C@@H](CCCN=C(N)N)C(=O)N[C@@H](Cc1ccccc1)C(N)=O | –
– | 30 | NCCC(=O)N[C@@H](CC1CCCCC1)C(=O)N[C@@H](CCCN=C(N)N)C(=O)N[C@@H](Cc1ccccc1)C(N)=O (H-[βAla][Cha]RF-NH2) | –
2.4 | – | N=C(N)NCCC[C@H](NC(=O)[C@H](CC1CCCCC1)NC(=O)c1ccc2c(c1)-c1ccccc1-2)C(=O)N[C@@H](Cc1ccccc1)C(N)=O | –
